Data set [1] in a line: Pharmacokinetics in MDA-MB-231 xenograft tumor-bearing mice (LC-MS/MS). The data set is classed as in vivo. An excerpt: Analytical LC-MS/MS conditions: Compound levels in plasma and tissues for in vivo pharmacokinetic (PK) studies were monitored by LC-MS/MS using an AB Sciex (Framingham, MA) 6500^+ QTRAP® mass spectrometer coupled to a Shimadzu (Columbia, MD) Prominence LC. Analytes were detected with the mass spectrometer in positive MRM (multiple reaction monitoring) mode by following the precursor to fragment ion transition 705.3→592.3. An Agilent C18 XDB column (5 micron, 50×4.6 mm) was used for chromatography for PK studies with the following conditions: Buffer A: dH2O+0.1% formic acid, Buffer B: methanol+0.1% formic acid, 0-1.0 min 5% B, 1.0-2 min gradient to 98% B, 2-3.0 min 98% B, 3.0-3.2 min gradient to 5% B, 3.2-4.5 min 5% B. Tolbutamide (transition 271.2 to 91.2) from Sigma (St. Louis, MO) was used as an internal standard (IS). Pharmacokinetic studies were performed in MDA-MB-231 xenograft tumor-bearing female NOD-SCID mice. ERX-41 was given either orally or intraperitoneally (10 mg/kg single dose). Animals were sacrificed in groups of three, blood was obtained by cardiac puncture at each time point (0, 0.5, 1.5, 3, 6 and 24 hours post dose) using the anticoagulant EDTA and plasma isolated by centrifugation. Tumor and liver were also collected and snap frozen in liquid nitrogen after rinsing with PBS to remove surface adhering blood. Tissues were homogenized in a 3-fold volume (weight by volume) of PBS to generate a homogenate. 100 μl of plasma or tissue homogenate was mixed with 200 μl of methanol containing 0.15% formic acid and 15 ng/mL tolbutamide IS. The samples were vortexed 15 sec, incubated at room temp for 10 min and spun twice at 16,100×g 4° C. in a refrigerated microcentrifuge. The amount of compound present in plasma, tumor and liver was quantified by LC-MS/MS to determine the amount of compound in each matrix. Standard curves were generated using blank plasma (Bioreclamation, Westbury, NY, RRID:SCR_004728) or blank tissue homogenate spiked with known concentrations of test compound and processed as described above. The concentrations of drug in each time-point sample were quantified using Analyst 1.7.1 software (Sciex). A value of 3-fold above the signal obtained from blank plasma or tissue homogenate was designated the limit of detection (LOD). The lower limit of quantitation (LLOQ) was defined as the lowest concentration at which back calculation yielded a concentration within 20% of theoretical and which was above the LOD. The LLOQ for plasma and tumor was 0.1 ng/mL and 1 ng/mL in liver. PK parameters, Cmax, Tmax, Terminal T½ (calculated as Ln(2)/λz), AUClast (area under the concentration time curve to the last measured value determined by linear trapezoidal rule), Cl (clearance measured as Dose/AUCinf), and Vz (volume of distribution based on the terminal phase=Dose/AUCinf*λz) were calculated using the noncompartmental analysis tool of Phoenix WinNonLin version 8.01 (Certara/Pharsight, Sunnyvale, CA, RRID:SCR_003163).

Data set [2] deals with SUM-159 LIPA KO xenografts. The data set is described as follows: SUM-159 LIPA KO xenografts. The data set is classed as in vivo, SCID mice. The following applies: i.p., 10 mg/kg/day. The method, then: Knockout studies: For xenograft knockout tumor models, 1.8×10^6SUM159 parental, or 1.8×10^6SUM159-LIPA KO cells were harvested with 1% trypsin-EDTA, washed and resuspended in sterile PBS. Cells were initially implanted into the mammary fat pads of six-week-old female C.B-17 (SCID) mice purchased from Envigo (Indianapolis, IN, USA). Mice were monitored twice weekly for tumor growth measured by Vernier calipers where tumor volume was calculated by the formula (length×width^2)/2. Tumors were dissected into 2 mm cubes when they reached 800 mm^3 in size and subsequently implanted into the mammary fat pad of twelve SCID female mice. Once tumor fragments reached 150 mm^3 in size, mice were randomly divided into vehicle group (n=6, control, 0.3% Hydroxy cellulose, i.p.) and treatment group (n=6, ERX-41, 10 mg/kg/day/i.p.). Institutional guidelines were followed to determine experimental end points.

In another data set the test system is TNBC cells. The data set is described as follows: Ca^2+ flux in TNBC cells. Format: cell-based. The following applies: data not shown.
Data set [3] can be described thus: Tolerability of daily dosing in mice (pilot MTD). Format: in vivo. Particulars: daily oral or intraperitoneal, up to 100 mg/kg. The procedure:
(§1) Animal Studies: All animal experiments were performed using UTHSA and UTSW IACUC approved protocols. For cell based xenograft tumor assays, TNBC cells (2×10^5-2×10^6) were mixed with an equal volume of matrigel and implanted in the mammary fat pads of 6-week-old female athymic nude mice as described^33. BALB/c mice were used for D2A1 syngeneic model. Once tumors reached measurable size, mice were divided into control (vehicle) and ERX-41 (10 mg/kg/oral) treatment groups. Mice bearing TNBC PDX tumors were purchased from Jackson laboratory (TM00089; TM00096; TM00098). TNBC PDX line UTPDX0001 establishment was earlier described^38. WHIM-20 ER+PDX model was purchased from Horizon Labs. OCa-PDX-38 was received from UTHSA ObGyn tissue procurement core. When tumors reached ˜750 mm^3 they were dissected into 2 mm^3 pieces and implanted into the mammary fat pads of 6 weeks old female SCID or NSG mice. When the tumor volume reached ˜200 mm^3, mice were randomized for treatment. The mice were monitored daily for adverse toxic effects and tumor volume was measured every 3-4 days using calipers. For establishing ES2 tumors, ES2/GFP/LUC cells were injected i.p. and tumors were measured twice a week using Xenogen in vivo imaging system. […] The mice were monitored daily for adverse toxic effects. […] The sections were scored by two independent evaluators blinded to the patient's clinical status.

Data set [4] concerns ERα+ breast PDX (WHIM-20). Put plainly: ERα+ breast PDX WHIM-20. The data set is classed as in vivo, NSG mice. The following applies: 10 mg/kg daily. The procedure:
as §1

The subject of data set [5] is normal human mammary epithelial cells (HMEC). The data set is described as follows: Cell viability (WST, MTT, CellTiter-Glo), HMEC. Format: cell-based. Particulars: at >1 μM, MTT or CellTiter-Glo. The procedure: Cell viability assays: Cells were seeded in 96-well plates (2×10^3 cells/well) one day before the treatment. Cells were treated with varying concentrations of ERX-41 or ERX-11 analogs for 3-6 days. Then effects of ERX-41 or ERX-11 analogs on cell viability were measured in triplicate or sextuplicate with multiple biological replicates using the WST-1 (Promega), MTT as previously described^33 or CellTiter-Glo 2.0 (Promega) assays.

Data set [6] concerns ovarian cancer PDX (OCa-PDX-38). The data set is described as follows: Ovarian cancer PDX OCa-PDX-38. Format: in vivo, NSG mice. Particulars: 10 mg/kg daily. The procedure: as §1

Entries after “also recorded” stand apart in the source; their conditions may differ. Bounds are passed on as bounds.

Consider `CC(C)COc1cc(C(=O)Nc2ccc(C(=O)N[C@H]3CC[C@H](C)CC3)cc2OCC(C)C)ccc1NC(=O)c1ccc([N+](=O)[O-])c(OCCO)c1` [ERX-41], for which the “drug level in treated tumor tissues at 24 h” value in data set [1] (10 mg/kg single dose) is listed as “detectable levels of ERX-41 at 24 h”. Moreover, the oral bioavailability entry in data set [1] (mouse, in vivo, po) is “orally bioavailable”. Besides, the “time to detection in liver and kidneys” value in data set [1] (oral administration) is recorded as not above 4 h. The “time to detection in subcutaneous MDA-MB-231 xenograft tumors” value in data set [1] (oral or intraperitoneal administration) is listed as not above 1.5 h. Also, the “time of peak detectable levels in plasma” value in data set [1] (oral, 10 mg/kg single dose) came out at 4 h. In addition, in data set [2], the “response of LIPA KO xenografts” value was “did not respond”. Moreover, in the data set with TNBC cells, the “Ca^2+ flux within TNBC cells” value is “not able to induce Ca^2+ flux”. Also, the tolerability result in data set [3] was “well tolerated by mice, with no clear evidence of toxicity”. Besides, in data set [4], the “activity against WHIM-20 PDX” value is listed as “has activity against”. Further, the “effect on normal human mammary epithelial cells” value in data set [5] is “non-toxic; also recorded: did not have significant effect”. The “activity against OCa-PDX-38” value in data set [6] is “has activity against”.

Values taken from patent publication US20250114313A1, “OLIGO-BENZAMIDE ANALOGS AND THEIR USE IN CANCER TREATMENT” (BOARD OF REGENTS, THE UNIVERSITY OF TEXAS SYSTEM, priority 2022, published 2025).
